According to patent US20240158446A1, “CYCLIC COMPOUND HAVING SELECTIVE INHIBITORY ACTION ON KRAS OVER HRAS AND NRAS” (CHUGAI SEIYAKU KABUSHIKI KAISHA, priority 2021, published 2024):
Where two headings read alike, the source gives them in different places.

Legend:
[1] = biological target: GDP-bound NRAS wild-type protein (Homo sapiens, UniProt P01111); test: Binding to NRAS by surface plasmon resonance (SPR), Single Cycle Kinetics; conditions: for NRAS/KRAS (ratio of KD value for NRAS to KD value for KRAS): GDP-bound NRAS wild-type protein vs GDP-bound KRAS wild-type protein; for NRAS/KRAS (ratio of KD value with respect to GDP-bound NRAS wild-type protein to KD value with respect to KRAS): SPR KD ratio NRAS/KRAS, class symbols
Sequence of GDP-bound NRAS wild-type protein (P01111 whole entry): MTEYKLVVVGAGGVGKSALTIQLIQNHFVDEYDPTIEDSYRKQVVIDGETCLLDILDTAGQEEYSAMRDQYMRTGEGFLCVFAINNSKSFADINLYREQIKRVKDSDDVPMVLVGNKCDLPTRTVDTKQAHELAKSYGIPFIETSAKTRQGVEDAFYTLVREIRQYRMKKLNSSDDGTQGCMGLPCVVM

[2] = biological target: GDP-bound HRAS wild-type protein (Homo sapiens, UniProt P01112); test: Binding to HRAS by surface plasmon resonance (SPR), Single Cycle Kinetics; conditions: for HRAS/KRAS (ratio of KD value for HRAS to KD value for KRAS): GDP-bound HRAS wild-type protein vs GDP-bound KRAS wild-type protein; for HRAS/KRAS (ratio of KD value with respect to GDP-bound HRAS wild-type protein to KD value with respect to KRAS): SPR KD ratio HRAS/KRAS, class symbols
Sequence of GDP-bound HRAS wild-type protein (P01112 whole entry): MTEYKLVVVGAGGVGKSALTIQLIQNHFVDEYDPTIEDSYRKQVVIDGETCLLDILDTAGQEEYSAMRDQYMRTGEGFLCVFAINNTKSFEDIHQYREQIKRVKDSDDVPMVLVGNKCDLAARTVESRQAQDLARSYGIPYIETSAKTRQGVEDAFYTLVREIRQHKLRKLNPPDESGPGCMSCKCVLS

[3] = test system: human lung cancer strain NCI-H441;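 also: cell proliferation inhibition after four days measured by CellTiter-Glo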
[4] = biological target: GDP-bound KRAS wild-type protein (Homo sapiens, UniProt P01116); test: Binding to KRAS by surface plasmon resonance (SPR), Single Cycle Kinetics; conditions: GDP-bound KRAS wild-type protein, read-out: KRAS KD
Sequence of GDP-bound KRAS wild-type protein (P01116 whole entry): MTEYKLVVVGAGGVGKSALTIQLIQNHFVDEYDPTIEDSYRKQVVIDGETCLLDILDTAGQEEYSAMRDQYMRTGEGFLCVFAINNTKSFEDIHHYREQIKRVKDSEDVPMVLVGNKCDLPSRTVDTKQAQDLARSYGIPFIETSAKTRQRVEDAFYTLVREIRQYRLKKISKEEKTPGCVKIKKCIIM

[5] = SPR, Single Cycle Kinetics, 1:1 binding model
[6] = SPR Single Cycle Kinetics, 1:1 binding model

Structure (SMILES)	IC50 [3] [nM]	Kd [4, 5] [nM]	Kd ([4]; SPR, Single Cycle Kinetics) [nM]	Kd [4, 6] [nM]	NRAS/KRAS (ratio of KD value for NRAS to KD value for KRAS) ([1]; SPR, KD ratio class)	HRAS/KRAS (ratio of KD value for HRAS to KD value for KRAS) ([2]; SPR, KD ratio class)	NRAS/KRAS (ratio of KD value for NRAS to KD value for KRAS) ([1]; SPR)	HRAS/KRAS (ratio of KD value for HRAS to KD value for KRAS) ([2]; SPR)	NRAS/KRAS (ratio of KD value with respect to GDP-bound NRAS wild-type protein to KD value with respect to KRAS) [1]	HRAS/KRAS (ratio of KD value with respect to GDP-bound HRAS wild-type protein to KD value with respect to KRAS) [2]	further results
CCO[C@@H]1C[C@H]2C(=O)NC3(CCC3)C(=O)N(C)[C@@H](C(CC)CC)C(=O)N(C)[C@H](C(=O)N(C)C)CC(=O)N(C)[C@@H](CC3CC3)C(=O)N[C@@H]([C@@H](C)CC)C(=O)N(C)CC(=O)N(C)[C@H]3C/C=C\CCN(C3=O)[C@@H](CC3CCCCC3)C(=O)N(C)CC(=O)N[C@@H](CCc3cc(F)c(C(F)(F)F)c(F)c3)C(=O)N2C1 [PP1428]	38.8	0.87			AA (a compound having 20 or more is denoted as AA)	A (a compound having 10 or more and less than 20 is denoted as A)					
CC[C@H](C)[C@@H]1NC(=O)[C@H](CC2CC2)N(C)C(=O)C[C@@H](C(=O)N(C)C)N(C)C(=O)[C@H](C2CCCC2)N(C)C(=O)C2(CCCC2)NC(=O)[C@@H]2CCCN2C(=O)[C@H](CCc2cc(F)c(C(F)(F)F)c(F)c2)NC(=O)CN(C)C(=O)[C@H](Cc2ccc(C(F)(F)F)cc2)N2C[C@H](C)[C@H](C)C[C@@H](C2=O)N(C)C(=O)CN(C)C1=O [PP1368]	2.9	0.061			A (a compound having 10 or more and less than 20 is denoted as A)	B (a compound having 3 or more and less than 10 is denoted as B)					
CCO[C@@H]1C[C@H]2C(=O)NC3(CC(C)(C)C3)C(=O)N(C)[C@@H](C(CC)CC)C(=O)N(C)[C@H](C(=O)N3CCCCC3)CC(=O)N(C)[C@@H](COC)C(=O)N[C@@H]([C@@H](C)CC)C(=O)N(C)CC(=O)N(C)[C@H]3C/C=C\CCN(C3=O)[C@@H](Cc3ccc(C(F)(F)F)cc3)C(=O)N(C)CC(=O)N[C@@H](CCc3cc(F)c(C(F)(F)F)c(F)c3)C(=O)N2C1 [PP2606]	68.7			0.81					AA (a compound having 20 or more is denoted as AA)	AA (a compound having 20 or more is denoted as AA)	
CCC[C@H]1C(=O)N[C@@H]([C@@H](C)CC)C(=O)N(C)CC(=O)N(C)[C@H]2C/C=C\CCN(C2=O)[C@@H](Cc2ccc(C(F)(F)F)cc2)C(=O)N(C)CC(=O)N[C@@H](CCc2cc(F)c(C(F)(F)F)c(F)c2)C(=O)N2C[C@H](OCC)C[C@H]2C(=O)NC2(CCC2)C(=O)N(C)[C@@H](C2CCCC2)C(=O)N(C)[C@H](C(=O)N2CCCCC2)CC(=O)N1C [PP1294]	10	0.29			A (a compound having 10 or more and less than 20 is denoted as A)	A (a compound having 10 or more and less than 20 is denoted as A)					
CCO[C@@H]1C[C@H]2C(=O)NC3(CCOCC3)C(=O)N(C)[C@@H](C3CCCC3)C(=O)N(C)[C@H](C(=O)N(C)C)CC(=O)N(C)[C@@H](CC)C(=O)N[C@@H]([C@@H](C)CC)C(=O)N(C)CC(=O)N(C)[C@H]3C/C=C\CCN(C3=O)[C@@H](Cc3ccc(C(F)(F)F)cc3)C(=O)N(C)CC(=O)N[C@@H](CCc3cc(F)c(C(F)(F)F)c(F)c3)C(=O)N2C1 [PP1279]	72.6	0.27			A (a compound having 10 or more and less than 20 is denoted as A)	A (a compound having 10 or more and less than 20 is denoted as A)					
CCC[C@H]1C(=O)N[C@@H](CC(C)C)C(=O)N(CCOC)CC(=O)N(C)[C@H]2C/C=C\CCN(C2=O)[C@@H](Cc2ccc(C)cc2)C(=O)N(C)CC(=O)N[C@@H](CCc2ccc(C(F)(F)F)c(OC)c2)C(=O)N2C[C@H](OCC)C[C@H]2C(=O)NC2(CC(C)(C)C2)C(=O)N(C)[C@@H](C2CCCC2)C(=O)N(C)[C@H](C(=O)N(C)C)CC(=O)N1C [PP2522]	113			3.2					B (a compound having 3 or more and less than 10 is denoted as B)	B (a compound having 3 or more and less than 10 is denoted as B)	

Now from value to molecule, other results behind:

IC50 [3] [nM]	Kd [4, 5] [nM]	Kd ([4]; SPR, Single Cycle Kinetics) [nM]	Kd [4, 6] [nM]	Structure (SMILES)	NRAS/KRAS (ratio of KD value for NRAS to KD value for KRAS) ([1]; SPR, KD ratio class)	HRAS/KRAS (ratio of KD value for HRAS to KD value for KRAS) ([2]; SPR, KD ratio class)	NRAS/KRAS (ratio of KD value for NRAS to KD value for KRAS) ([1]; SPR)	HRAS/KRAS (ratio of KD value for HRAS to KD value for KRAS) ([2]; SPR)	NRAS/KRAS (ratio of KD value with respect to GDP-bound NRAS wild-type protein to KD value with respect to KRAS) [1]	HRAS/KRAS (ratio of KD value with respect to GDP-bound HRAS wild-type protein to KD value with respect to KRAS) [2]	further results
25.4		0.11		CCO[C@@H]1C[C@H]2C(=O)NC3(CC(C)(C)C3)C(=O)N(C)[C@@H](C3CCCC3)C(=O)N(C)[C@H](C(=O)N(C)CC)CC(=O)N(C)[C@@H](COC)C(=O)N[C@@H]([C@@H](C)CC)C(=O)N(C)CC(=O)N(C)[C@H]3C/C=C\CCN(C3=O)[C@@H](Cc3ccc(C)cc3)C(=O)N(C)CC(=O)N[C@@H](CCc3ccc(C(F)(F)F)c(OC)c3)C(=O)N2C1 [PP2392]			A (a compound having 10 or more and less than 20 is denoted as A)	A (a compound having 10 or more and less than 20 is denoted as A)			
26.3	0.23			CCO[C@@H]1C[C@H]2C(=O)NC3(CCC3)C(=O)N(C)[C@@H](C3CCCC3)C(=O)N(C)[C@H](C(=O)N3CCOCC3)CC(=O)N(C)[C@@H](CC3CCC3)C(=O)N[C@@H]([C@@H](C)CC)C(=O)N(C)CC(=O)N(C)[C@H]3C/C=C\CCN(C3=O)[C@@H](Cc3ccc(C)cc3)C(=O)N(C)CC(=O)N[C@@H](CCc3cc(F)c(C(F)(F)F)c(F)c3)C(=O)N2C1 [PP1424]	A (a compound having 10 or more and less than 20 is denoted as A)	A (a compound having 10 or more and less than 20 is denoted as A)					
174			1.3	CC[C@H](C)[C@@H]1NC(=O)[C@H](COC)N(C)C(=O)C[C@@H](C(=O)N(C)C)N(C)C(=O)[C@H](C2CCCC2)N(C)C(=O)C2(CC(C)(C)C2)NC(=O)[C@@H]2C[C@@H](OC3CCC3)CN2C(=O)[C@H](CCc2ccc(Cl)c(Cl)c2)NC(=O)CN(C)C(=O)[C@H](CC2CCC(F)(F)CC2)N2CC/C=C\C[C@@H](C2=O)N(C)C(=O)CN(C2CC2)C1=O [PP2624]					A (a compound having 10 or more and less than 20 is denoted as A)	A (a compound having 10 or more and less than 20 is denoted as A)	
92.6			1.6	CCC[C@H]1C(=O)N[C@@H]([C@@H](C)CC)C(=O)N2CCC[C@H]2C(=O)N(C)[C@H]2C/C=C\CCN(C2=O)[C@@H](Cc2ccc(C(F)F)cc2)C(=O)N(C)CC(=O)N[C@@H](CCc2ccc(Cl)c(Cl)c2)C(=O)N2C[C@H](OC3CCC3)C[C@H]2C(=O)NC2(CC(C)(C)C2)C(=O)N(C)[C@@H](C(CC)CC)C(=O)N(C)[C@H](C(=O)N(C)C)CC(=O)N1C [PP2646]					AA (a compound having 20 or more is denoted as AA)	A (a compound having 10 or more and less than 20 is denoted as A)	
33.6		1.6		CCO[C@@H]1C[C@H]2C(=O)NC3(CC(C)(C)C3)C(=O)N(C)[C@@H](C(CC)CC)C(=O)N(C)[C@H](C(=O)N(C)C)CC(=O)N(C)[C@@H](C(C)C)C(=O)N[C@@H]([C@@H](C)CC)C(=O)N(C)CC(=O)N(C)[C@H]3C/C=C\CCN(C3=O)[C@@H](CC3CCC(F)(F)CC3)C(=O)N(C)CC(=O)N[C@@H](CCc3cc(F)c(C(F)(F)F)c(F)c3)C(=O)N2C1 [PP2481]			A (a compound having 10 or more and less than 20 is denoted as A)	A (a compound having 10 or more and less than 20 is denoted as A)			
		0.11		CC[C@H](C)[C@@H]1NC(=O)[C@@H]2CCCc3ccc(cc3)C[C@@H](C(=O)N(C)CC(=O)N[C@@H](CCc3ccc(C(F)(F)F)c(OC)c3)C(=O)N3C[C@H](OC4CCC4)C[C@H]3C(=O)NC3(CC(C)(C)C3)C(=O)N(C)[C@@H](C3CCCC3)C(=O)N(C)[C@H](C(=O)N(C)CC)CC(=O)N2C)N2CC/C=C\C[C@@H](C2=O)N(C)C(=O)CN(C)C1=O [PP3085]			A (a compound having 10 or more and less than 20 is denoted as A)	B (a compound having 3 or more and less than 10 is denoted as B)			ratio of the KD value with respect to GDP-bound NRAS wild-type protein to the KD value with respect to KRAS ([1]; SPR, KD(NRAS)/KD(KRAS)): A (a compound having 10 or more and less than 20 is denoted as A); ratio of the KD value with respect to GDP-bound HRAS wild-type protein to the KD value with respect to KRAS ([2]; SPR, KD(HRAS)/KD(KRAS)): B (a compound having 3 or more and less than 10 is denoted as B); IC50 ([3]; read-out: NCI-H441 cell proliferation inhibitory activity, 50% proliferation inhibitory concentration (IC50 value), NCI-H441, four days, CellTiter-Glo): 6.3 nM
132		0.97		CCO[C@H](C)[C@@H]1NC(=O)[C@H](CC(C)C)N(C)C(=O)C[C@@H](C(=O)N(C)C)N(C)C(=O)[C@H](C2CCCC2)N(C)C(=O)C2(CC(C)(C)C2)NC(=O)[C@@H]2C[C@H](C)CN2C(=O)[C@H](CCc2ccc(C(F)(F)F)c(OC)c2)NC(=O)CN(C)C(=O)[C@H](Cc2ccc(C)cc2)N2CC/C=C\C[C@@H](C2=O)N(C)C(=O)[C@@H]2CCCN2C1=O [PP2418]			A (a compound having 10 or more and less than 20 is denoted as A)	B (a compound having 3 or more and less than 10 is denoted as B)			
